Measurements reported in PubChem BioAssay AID1963432 (Molecular Pharmacology Branch, DTP, NCI, 2024).
Where “and” joins values, the source holds several entries; their conditions need not be identical. Identical values can stand only once.

Tested on: SYO-1 complex spheroid growth, percent test/control
Assay: Anticancer human tumor SYO-1 cell line growth inhibition [Asc];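 also: compound exposure lasted 7 days after spheroids grew 3 days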;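 as to viability, T/C: 100% = DMSO vehicle control viability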
Settings: for viability, T/C: stronger effect = lower value
Procedure, shortened: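 Spheroid model: tumor line + HUVEC + hMSC. Single agents and combinations; top conc. at/near clinical Cmax (10 microM if undetermined), half-log dilutions. DMSO stocks at 800-fold test concentration.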

## NC1CCC(NC2CC2c2ccccc2)CC1 (centres undefined)
Compound 0.000316 µM
  viability, T/C: 108% and 106% and 112%
Compound 0.001 µM
  viability, T/C: 102% and 97% and 97.1%
Compound 0.00316 µM
  viability, T/C: 90.9% and 95.4% and 93.3%
Compound 0.01 µM
  viability, T/C: 94.7% and 89.3% and 92.9%
Compound 0.0316 µM
  viability, T/C: 91.9% and 96.6% and 88.2%
Compound 0.1 µM
  viability, T/C: 90.8% and 84.5% and 86.5%
Curve of compound
  IC50: > 0.1 µM

## C#Cc1c(F)ccc2cc(O)cc(-c3ncc4c(N5CC6CCC(C5)N6)nc(OCC56CCCN5CC(F)C6)nc4c3F)c12 (centres undefined)
Compound 0.0316 µM
  viability, T/C: 111% and 98.5% and 108%
Compound 0.1 µM
  viability, T/C: 95.5% and 92.2% and 96.9%
Compound 0.316 µM
  viability, T/C: 108% and 95.5% and 110%
Compound 1 µM
  viability, T/C: 98.9% and 101% and 109%
Compound 3.16 µM
  viability, T/C: 111% and 117% and 105%
Compound 10 µM
  viability, T/C: 105% and 97.4% and 103%
Curve of compound
  IC50: > 10 µM

## C=CC(=O)N1CCN(c2nc(=O)n(-c3c(C)ccnc3C(C)C)c3nc(-c4c(O)cccc4F)c(F)cc23)C(C)C1 (centres undefined) + CNC(C)C(=O)NC1CN(S(=O)(=O)c2cccc(S(=O)(=O)N3CCC4CCC(C(=O)NC(c5ccccc5)c5ccccc5)N4C(=O)C(NC(=O)C(C)NC)C3)c2)CCC2CCC(C(=O)NC(c3ccccc3)c3ccccc3)N2C1=O
Curve of first compound, second compound 0.01 µM
  IC50: > 10 µM
Curve of first compound, second compound 0.0316 µM
  IC50: > 10 µM
Curve of first compound, second compound 0.1 µM
  IC50: > 10 µM
Curve of first compound, second compound 0.316 µM
  IC50: > 10 µM
Curve of first compound, second compound 1 µM
  IC50: > 10 µM
Second compound 0.01 µM, first compound 0.0316 µM
  viability, T/C: 104%
Second compound 0.01 µM, first compound 0.1 µM
  viability, T/C: 105%
Second compound 0.01 µM, first compound 0.316 µM
  viability, T/C: 101%
Second compound 0.01 µM, first compound 1 µM
  viability, T/C: 102%
Second compound 0.01 µM, first compound 3.16 µM
  viability, T/C: 90.3%
Second compound 0.01 µM, first compound 10 µM
  viability, T/C: 83.6%
Second compound 0.0316 µM, first compound 0.0316 µM
  viability, T/C: 97.4%
Second compound 0.0316 µM, first compound 0.1 µM
  viability, T/C: 94.5%
Second compound 0.0316 µM, first compound 0.316 µM
  viability, T/C: 99.4%
Second compound 0.0316 µM, first compound 1 µM
  viability, T/C: 97.2%
Second compound 0.0316 µM, first compound 3.16 µM
  viability, T/C: 87.3%
Second compound 0.0316 µM, first compound 10 µM
  viability, T/C: 86.2%
Second compound 0.1 µM, first compound 0.0316 µM
  viability, T/C: 88.3%
Second compound 0.1 µM, first compound 0.1 µM
  viability, T/C: 94.3%
Second compound 0.1 µM, first compound 0.316 µM
  viability, T/C: 100%
Second compound 0.1 µM, first compound 1 µM
  viability, T/C: 92.5%
Second compound 0.1 µM, first compound 3.16 µM
  viability, T/C: 98.1%
Second compound 0.1 µM, first compound 10 µM
  viability, T/C: 85.4%
Second compound 0.316 µM, first compound 0.0316 µM
  viability, T/C: 96.6%
Second compound 0.316 µM, first compound 0.1 µM
  viability, T/C: 98%
Second compound 0.316 µM, first compound 0.316 µM
  viability, T/C: 97.5%
Second compound 0.316 µM, first compound 1 µM
  viability, T/C: 93.5%
Second compound 0.316 µM, first compound 3.16 µM
  viability, T/C: 87.4%
Second compound 0.316 µM, first compound 10 µM
  viability, T/C: 89.6%
Second compound 1 µM, first compound 0.0316 µM
  viability, T/C: 98.1%
Second compound 1 µM, first compound 0.1 µM
  viability, T/C: 98.1%
Second compound 1 µM, first compound 0.316 µM
  viability, T/C: 93.1%
Second compound 1 µM, first compound 1 µM
  viability, T/C: 95.8%
Second compound 1 µM, first compound 3.16 µM
  viability, T/C: 93.5%
Second compound 1 µM, first compound 10 µM
  viability, T/C: 88%
